Source: patent publication US12599136B2, “Substituted isophthalic acid diamides and their use as herbicides” (Bayer Aktiengesellschaft, priority 2020, dated 2026)

Assays:
Assay type in all cases: in vivo
Setaria viridis [1] = assay: Post-emergence herbicidal action against SETVI; conditions: visual assessment about 3 weeks after treatment
Procedure, shortened: (§1)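 Greenhouse plants in sandy loam were sprayed at the one-leaf stage, 2 to 3 weeks after sowing, with WP or EC formulations as aqueous suspension or emulsion (600 to 800 l/ha water, 0.2% wetting agent). Visual damage was scored about 3 weeks later versus untreated controls, 0% = like control, 100% = dead.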

Avena fatua [2] = assay: Pre-emergence herbicidal action against AVEFA; conditions: visual score after 3 weeks vs untreated controls
Procedure, shortened: (§2)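 Pre-emergence soil-surface spray of formulated compound (WP or EC; 600 to 800 l/ha; 0.2% wetting agent) over seeds sown in sandy loam. After 3 weeks under greenhouse conditions, damage is estimated visually in percent against untreated plants.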

Amaranthus retroflexus [3] = assay: Pre-emergence herbicidal action against AMARE; conditions: visual score after 3 weeks vs untreated controls
Procedure, shortened: as §2

Abutilon theophrasti [4] = assay: Pre-emergence herbicidal action against ABUTH; conditions: visual score after 3 weeks vs untreated controls
Procedure, shortened: as §2

Lolium rigidum [5] = assay: Post-emergence herbicidal action against LOLRI; conditions: 80 g/ha
Procedure, shortened: as §1

Matricaria inodora [6] = assay: Pre-emergence herbicidal action against MATIN; conditions: visual score after 3 weeks vs untreated controls
Procedure, shortened: as §2

Viola tricolor [7] = assay: Post-emergence herbicidal action against VIOTR
Procedure, shortened: as §1

Pharbitis purpurea [8] = assay: Pre-emergence herbicidal action against PHBPU; conditions: 320 g/ha; visual score after 3 weeks vs untreated controls
Procedure, shortened: as §2

Avena fatua [9] = assay: Post-emergence herbicidal action against AVEFA; conditions: visual assessment about 3 weeks after treatment
Procedure, shortened: as §1

Alopecurus myosuroides [10] = assay: Pre-emergence herbicidal action against ALOMY; conditions: visual score after 3 weeks vs untreated controls
Procedure, shortened: as §2

Matricaria inodora [11] = assay: Post-emergence herbicidal action against MATIN; conditions: visual assessment about 3 weeks after treatment
Procedure, shortened: as §1

Hordeum murinum [12] = assay: Pre-emergence herbicidal action against HORMU; conditions: 320 g/ha; visual score after 3 weeks vs untreated controls
Procedure, shortened: as §2

Veronica persica [13] = assay: Post-emergence herbicidal action against VERPE; conditions: visual assessment about 3 weeks after treatment
Procedure, shortened: as §1

Stellaria media [14] = assay: Post-emergence herbicidal action against STEME; conditions: visual assessment about 3 weeks after treatment
Procedure, shortened: as §1

Cyperus esculentus [15] = assay: Pre-emergence herbicidal action against CYPES; conditions: visual score after 3 weeks vs untreated controls
Procedure, shortened: as §2

Setaria viridis [16] = assay: Pre-emergence herbicidal action against SETVI
Procedure, shortened: as §2

Alopecurus myosuroides [17] = assay: Post-emergence herbicidal action against ALOMY
Procedure, shortened: as §1

Echinochloa crus-galli [18] = assay: Pre-emergence herbicidal action against ECHCG; conditions: visual score after 3 weeks vs untreated controls
Procedure, shortened: as §2

Echinochloa crus-galli [19] = assay: Post-emergence herbicidal action against ECHCG; conditions: visual assessment about 3 weeks after treatment
Procedure, shortened: as §1

Polygonum convolvulus [20] = assay: Post-emergence herbicidal action against POLCO; conditions: 80 g/ha, visual assessment about 3 weeks after treatment
Procedure, shortened: as §1

Polygonum convolvulus [21] = assay: Pre-emergence herbicidal action against POLCO; conditions: 320 g/ha
Procedure, shortened: as §2

Abutilon theophrasti [22] = assay: Post-emergence herbicidal action against ABUTH
Procedure, shortened: as §1

Hordeum murinum [23] = assay: Post-emergence herbicidal action against HORMU
Procedure, shortened: as §1

Veronica persica [24] = assay: Pre-emergence herbicidal action against VERPE
Procedure, shortened: as §2

Cyperus esculentus [25] = assay: Post-emergence herbicidal action against CYPES; conditions: visual assessment about 3 weeks after treatment
Procedure, shortened: as §1

Lolium rigidum [26] = assay: Pre-emergence herbicidal action against LOLRI; conditions: 320 g/ha
Procedure, shortened: as §2

Amaranthus retroflexus [27] = assay: Post-emergence herbicidal action against AMARE; conditions: visual assessment about 3 weeks after treatment
Procedure, shortened: as §1

Pharbitis purpurea [28] = assay: Post-emergence herbicidal action against PHBPU; conditions: visual assessment about 3 weeks after treatment
Procedure, shortened: as §1

Stellaria media [29] = assay: Pre-emergence herbicidal action against STEME
Procedure, shortened: as §2

Viola tricolor [30] = assay: Pre-emergence herbicidal action against VIOTR
Procedure, shortened: as §2

## CCn1nnnc1NC(=O)c1ccc(C(F)(F)F)c(C(=O)N(C)CC2CC2)c1Cl [Example 2-126]
Setaria viridis [1]; 5 g/ha
  Post-emergence action against SETVI in %: 100%
Setaria viridis [1]; 20 g/ha
  Post-emergence action against SETVI in %: 100%
Setaria viridis [1]; 80 g/ha
  Post-emergence action against SETVI in %: 100%
Avena fatua [2]; 80 g/ha
  Pre-emergence action against AVEFA: 80%
Avena fatua [2]; 320 g/ha
  Pre-emergence action against AVEFA: 100%
Amaranthus retroflexus [3]; 20 g/ha
  Pre-emergence action against AMARE: 90%
Amaranthus retroflexus [3]; 80 g/ha
  Pre-emergence action against AMARE: 100%
Amaranthus retroflexus [3]; 320 g/ha
  Pre-emergence action against AMARE: 100%
Abutilon theophrasti [4]; 20 g/ha
  Pre-emergence action against ABUTH: 100%
Abutilon theophrasti [4]; 80 g/ha
  Pre-emergence action against ABUTH: 100%
Abutilon theophrasti [4]; Dosage column 320 g/ha (heading prints 3200 g/ha)
  Pre-emergence action against ABUTH: 100%
Lolium rigidum [5]
  Post-emergence action against LOLRI in %: 80%
Matricaria inodora [6]; 20 g/ha
  Pre-emergence action against MATIN: 80%
Matricaria inodora [6]; 80 g/ha
  Pre-emergence action against MATIN: 90%
Matricaria inodora [6]; 320 g/ha
  Pre-emergence action against MATIN: 100%
Viola tricolor [7]; 5 g/ha
  Post-emergence action against VIOTR in %: 100%
Viola tricolor [7]; 20 g/ha
  Post-emergence action against VIOTR in %: 100%
Viola tricolor [7]; 80 g/ha
  Post-emergence action against VIOTR in %: 100%
Pharbitis purpurea [8]
  Pre-emergence action against PHBPU: 100%
Avena fatua [9]; 20 g/ha
  Post-emergence action against AVEFA in %: 100%
Avena fatua [9]; 80 g/ha
  Post-emergence action against AVEFA in %: 100%
Alopecurus myosuroides [10]; 80 g/ha
  Pre-emergence action against ALOMY: 80%
Alopecurus myosuroides [10]; 320 g/ha
  Pre-emergence action against ALOMY: 100%
Matricaria inodora [11]; 5 g/ha
  Post-emergence action against MATIN in %: 80%
Matricaria inodora [11]; 20 g/ha
  Post-emergence action against MATIN in %: 100%
Matricaria inodora [11]; 80 g/ha
  Post-emergence action against MATIN in %: 100%
Hordeum murinum [12]
  Pre-emergence action against HORMU: 100%
Veronica persica [13]; 20 g/ha
  Post-emergence action against VERPE in %: 80%
Veronica persica [13]; 80 g/ha
  Post-emergence action against VERPE in %: 90%
Stellaria media [14]; 5 g/ha
  Post-emergence action against STEME in %: 100%
Stellaria media [14]; 20 g/ha
  Post-emergence action against STEME in %: 100%
Stellaria media [14]; 80 g/ha
  Post-emergence action against STEME in %: 100%
Cyperus esculentus [15]; 80 g/ha
  Pre-emergence action against CYPES: 80%
Cyperus esculentus [15]; 320 g/ha
  Pre-emergence action against CYPES: 90%
Setaria viridis [16]; 80 g/ha
  Pre-emergence action against SETVI: 100%
Setaria viridis [16]; 320 g/ha
  Pre-emergence action against SETVI: 100%
Alopecurus myosuroides [17]; 5 g/ha
  Post-emergence action against ALOMY: 80%
Alopecurus myosuroides [17]; 20 g/ha
  Post-emergence action against ALOMY: 90%
Alopecurus myosuroides [17]; 80 g/ha
  Post-emergence action against ALOMY: 100%
Echinochloa crus-galli [18]; 80 g/ha
  Pre-emergence action against ECHCG: 80%
Echinochloa crus-galli [18]; 320 g/ha
  Pre-emergence action against ECHCG: 100%
Echinochloa crus-galli [19]; 5 g/ha
  Post-emergence action against ECHCG in %: 90%
Echinochloa crus-galli [19]; 20 g/ha
  Post-emergence action against ECHCG in %: 100%
Echinochloa crus-galli [19]; 80 g/ha
  Post-emergence action against ECHCG in %: 100%
Polygonum convolvulus [20]
  Post-emergence action against POLCO in %: 80%
Polygonum convolvulus [21]
  Pre-emergence action against POLCO: 100%
Abutilon theophrasti [22]; 5 g/ha
  Post-emergence action against ABUTH: 80%
Abutilon theophrasti [22]; 20 g/ha
  Post-emergence action against ABUTH: 100%
Abutilon theophrasti [22]; 80 g/ha
  Post-emergence action against ABUTH: 100%
Hordeum murinum [23]; 5 g/ha
  Post-emergence action against HORMU in %: 80%
Hordeum murinum [23]; 20 g/ha
  Post-emergence action against HORMU in %: 90%
Hordeum murinum [23]; 80 g/ha
  Post-emergence action against HORMU in %: 100%
Veronica persica [24]; 80 g/ha
  Pre-emergence action against VERPE: 80%
Veronica persica [24]; 320 g/ha
  Pre-emergence action against VERPE: 90%
Cyperus esculentus [25]; 20 g/ha
  Post-emergence action against CYPES in %: 80%
Cyperus esculentus [25]; 80 g/ha
  Post-emergence action against CYPES in %: 90%
Lolium rigidum [26]
  Pre-emergence action against LOLRI: 90%
Amaranthus retroflexus [27]; 5 g/ha
  Post-emergence action against AMARE in %: 100%
Amaranthus retroflexus [27]; 20 g/ha
  Post-emergence action against AMARE in %: 100%
Amaranthus retroflexus [27]; 80 g/ha
  Post-emergence action against AMARE in %: 100%
Pharbitis purpurea [28]; 5 g/ha
  Post-emergence action against PHBPU in %: 90%
Pharbitis purpurea [28]; 20 g/ha
  Post-emergence action against PHBPU in %: 100%
Pharbitis purpurea [28]; 80 g/ha
  Post-emergence action against PHBPU in %: 100%
Stellaria media [29]; 20 g/ha
  Pre-emergence action against STEME: 80%
Stellaria media [29]; 320 g/ha
  Pre-emergence action against STEME: 90%
Viola tricolor [30]; 20 g/ha
  Pre-emergence action against VIOTR: 80%
Viola tricolor [30]; 80 g/ha
  Pre-emergence action against VIOTR: 100%
Viola tricolor [30]; 320 g/ha
  Pre-emergence action against VIOTR: 100%
